Where a chain is given by its changes, count along the chain named. Where two headings read alike, the source gives them in different places.
T1: human CARM1 (CARM1_135–479) (Homo sapiens, UniProt Q86X55)
T1 sequence (Q86X55 135-479): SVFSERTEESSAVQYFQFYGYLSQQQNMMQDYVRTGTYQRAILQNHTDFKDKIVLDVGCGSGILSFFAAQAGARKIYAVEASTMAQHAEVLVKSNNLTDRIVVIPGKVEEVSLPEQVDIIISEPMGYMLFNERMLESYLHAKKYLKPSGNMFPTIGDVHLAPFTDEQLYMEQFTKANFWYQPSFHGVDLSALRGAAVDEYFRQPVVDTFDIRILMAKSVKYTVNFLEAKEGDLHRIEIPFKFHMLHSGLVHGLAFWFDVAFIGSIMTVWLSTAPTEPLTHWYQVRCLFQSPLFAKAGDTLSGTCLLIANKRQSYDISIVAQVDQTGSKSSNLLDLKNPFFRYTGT

T2: CARM1_135–479 (Homo sapiens, UniProt Q86X55)
T2 construct: human CARM1, residues 135 to 479; MBP (N, cleaved yes); linker and TEV site […]; (N, cleaved yes); made in house; host or cells: E. coli BL21-CodonPlus (DE3)-RIL
T2 sequence (Q86X55 135-479): T1 sequence (Q86X55 135-479)

T3: CARM1 N161E (Homo sapiens, UniProt Q86X55, N161E)
T3 sequence (Q86X55 135-479 N161E): T1 sequence (Q86X55 135-479) with N27E

T4: CARM1 N265Y (Homo sapiens, UniProt Q86X55, N265Y)
T4 sequence (Q86X55 135-479 N265Y): T1 sequence (Q86X55 135-479) with N131Y

B1: catalytic domain of human CARM1, residues 135 to 479 (domain or fragment, UniProt Q86X55 135-479, looked up)
chain: T1 sequence (Q86X55 135-479)
notes: MBP and the linker removed with TEV protease; also called CARM1_(135–479); CARM1 catalytic domain; not shown: MBP, N-terminal, cleaved

Experiments:
[1] = target: T1, human CARM1 (CARM1_135–479); assay: Isothermal titration calorimetry (ITC) with CARM1 catalytic domain; type: binding; settings: for -T∆S, CARM1: calculated indirectly; for ∆G, CARM1: calculated indirectly from best-fit Kd and ∆H; for Binding more strongly to CARM1 over PRMT1 (as judged by ITC): ratio of Kd values PRMT1/CARM1
CARM1_135–479 = target: T2, CARM1_135–479; assay: Radiometric methylation assay, CARM1 with H3(3–31) and [methyl-3H]-SAM; type: biochemical; settings: 0.23 µM [3H]-SAM
CARM1 N161E = target: T3, CARM1 N161E; assay: ITC with CARM1 N161E mutant; settings: for N ± standard error, CARM1 N161E / ∆H ± standard error, CARM1 N161E / -T∆S, CARM1 N161E / ∆G, CARM1 N161E: ITC; for -T∆S, CARM1 N161E / ∆G, CARM1 N161E: calculated indirectly
CARM1 N265Y = target: T4, CARM1 N265Y; assay: ITC with CARM1 N265Y mutant; settings: for N ± standard error, CARM1 N265Y / ∆H ± standard error, CARM1 N265Y / -T∆S, CARM1 N265Y / ∆G, CARM1 N265Y: ITC; for -T∆S, CARM1 N265Y / ∆G, CARM1 N265Y: calculated indirectly
[2] = target: human PRMT1 (PRMT1_22–361) (Homo sapiens, UniProt Q99873); assay: Isothermal titration calorimetry (ITC) with PRMT1; type: binding; settings: for -T∆S, PRMT1: calculated indirectly
Chain of human PRMT1 (PRMT1_22–361) (Q99873 32-371): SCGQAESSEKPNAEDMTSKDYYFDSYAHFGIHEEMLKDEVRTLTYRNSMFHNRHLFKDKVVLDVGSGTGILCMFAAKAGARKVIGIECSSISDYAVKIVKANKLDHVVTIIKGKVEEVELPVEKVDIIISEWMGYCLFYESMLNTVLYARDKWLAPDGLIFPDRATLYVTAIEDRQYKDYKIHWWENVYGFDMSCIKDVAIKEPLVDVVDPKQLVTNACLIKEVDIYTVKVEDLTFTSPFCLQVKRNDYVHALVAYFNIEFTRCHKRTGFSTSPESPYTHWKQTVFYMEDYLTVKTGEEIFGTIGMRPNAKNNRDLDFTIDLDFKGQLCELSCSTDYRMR

CARM1 = settings: cited from earlier work
other methyltransferases = system: other methyltransferases; set-up: method as in PMID 29719619; settings: cited from earlier work
[3] = system: multiple myeloma xenograft model; set-up: method as in PMID 29269946; settings: cited from earlier work
PRMT1_22–361 = PRMT1_22–361 (Homo sapiens, UniProt Q99873); assay: Radiometric methylation assay, PRMT1 with H4(1–21) and [methyl-3H]-SAM; type: biochemical; settings: 160 nM PRMT1, 40 µM H4(1–21), 0.23 µM [3H]-SAM, 30°C, 60 min; read-out: IC50 (95% confidence interval), PRMT1
Chain of PRMT1_22–361 (Q99873 32-371): as above

[4] = target: the molecule itself; assay: crystal structure; CARM1(135-479) co-crystallised with small-molecule inhibitors 4, 5, 6 and 7; sitting-drop vapour diffusion, 20°C; space group P2(1)2(1)2
[5] = ITC, 25°C, read-out: Kd ± standard error, CARM1
[6] = ITC, Table 2, wild-type, read-out: Kd ± standard error from curve fitting, CARM1 WT
[7] = 320 nM CARM1, 120 µM H3(3–31), read-out: IC50 (95% confidence interval), CARM1

| Molecule | N (stoichiometry) ± standard error from curve fitting, CARM1 ([1]; ITC) | ∆H ± standard error from curve fitting, CARM1 ([1]; ITC) | Kd [1, 5] | Kd [1, 6] | -T∆S, CARM1 ([1]; ITC) | ∆G, CARM1 ([1]; ITC) | IC50 (CARM1_135–479; [7]) | Kd (CARM1 N161E) | N ± standard error, CARM1 N161E (CARM1 N161E) | ∆H ± standard error, CARM1 N161E (CARM1 N161E) | -T∆S, CARM1 N161E (CARM1 N161E) | ∆G, CARM1 N161E (CARM1 N161E) | Kd (CARM1 N265Y) | N ± standard error, CARM1 N265Y (CARM1 N265Y) | ∆H ± standard error, CARM1 N265Y (CARM1 N265Y) | -T∆S, CARM1 N265Y (CARM1 N265Y) | ∆G, CARM1 N265Y (CARM1 N265Y) | other results |
| --- | --- | --- | --- | --- | --- | --- | --- | --- | --- | --- | --- | --- | --- | --- | --- | --- | --- | --- |
| NCCCN(CCCNc1ncccn1)C[C@H]1O[C@@H](n2cnc3c(N)ncnc32)[C@H](O)[C@@H]1O [Inhibitor 8] | 0.529 ± 0.0042 | -29.6 ± 0.445 kcal/mol | 2300 ± 162 nM | 2300 ± 162 nM | 22 kcal/mol | -7.7 kcal/mol | 700 nM | 1110 ± 201 nM | 0.745 ± 0.012 | -27 ± 0.906 kcal/mol | 18.9 kcal/mol | -8.13 kcal/mol | 5180 ± 1860 nM | 0.698 ± 0.051 | -15 ± 2.01 kcal/mol | 7.82 kcal/mol | -7.22 kcal/mol |  |
| NCCCN(CCCNc1ccccn1)C[C@H]1O[C@@H](n2cnc3c(N)ncnc32)[C@H](O)[C@@H]1O [Inhibitor 9] | 0.529 ± 0.025 | -20.6 ± 1.77 kcal/mol | 1140 ± 411 nM | 1140 ± 411 nM | 12.5 kcal/mol | -8.13 kcal/mol | 300 nM | 354 ± 34 nM | 0.914 ± 0.005 | -20.7 ± 0.28 kcal/mol | 11.9 kcal/mol | -8.8 kcal/mol | 3260 ± 458 nM | 1.07 ± 0.035 | -14.8 ± 0.803 kcal/mol | 7.31 kcal/mol | -7.48 kcal/mol | Binding more strongly to CARM1 over PRMT1 (as judged by ITC) [1]: ~15 fold |
| Nc1ncnc2c1ncn2[C@@H]1O[C@H](CSCC[C@H](N)C(=O)O)[C@@H](O)[C@H]1O [SAH, S-Adenosylhomocysteine, reference compound] | 0.549 ± 0.0086 | -35.1 ± 1.1 kcal/mol |  |  | 27 kcal/mol |  |  |  | 0.692 ± 0.0047 | -29.9 ± 0.44 kcal/mol | 20.6 kcal/mol | -9.39 kcal/mol |  | 0.737 ± 0.004 | -23.7 ± 0.251 kcal/mol | 15.8 kcal/mol | -7.96 kcal/mol | N (stoichiometry) ± standard error from curve fitting, PRMT1 [2]: 0.485 ± 0.0037; ∆H ± standard error from curve fitting, PRMT1 ([2]; 10: competition experiment): -23.4 ± 0.335 kcal/mol; -T∆S, PRMT1 ([2]; 10: competition experiment): 15 kcal/mol |
| Nc1ncnc2c1ncn2[C@@H]1O[C@H](CN(CCCNc2ccccn2)CC[C@H](N)C(=O)O)[C@@H](O)[C@H]1O [Inhibitor 10] | 0.536 ± 0.0079 | -17.5 ± 0.459 kcal/mol |  |  | 9.35 kcal/mol | -8.13 kcal/mol |  | 181 ± 17 nM | 1.02 ± 0.004 | -22.5 ± 0.232 kcal/mol | 13.3 kcal/mol | -9.2 kcal/mol | 143000 ± 75900 nM |  |  |  |  | Kd ([1]; Kd ± standard error from curve fitting, CARM1 WT, ITC, Table 2, wild-type): 1110 ± 132 nM; Kd ([1]; Kd ± standard error, CARM1, ITC, 25°C): 1110 ± 132 nM; Binding more strongly to CARM1 over PRMT1 (as judged by ITC) [1]: ~40 fold; IC50 (CARM1_135–479; IC50 (95% confidence interval), CARM1, 320 nM CARM1, 120 µM H3(3–31)): 800 nM |
| CNC[C@@H](O)COc1ccc(Cl)c(-c2nc(-c3c(C)noc3C)c(C)c(N3CC4(CCN(C(=O)OC)CC4)C3)n2)c1 [EPZ022302/EZM2302] |  |  |  |  |  |  |  |  |  |  |  |  |  |  |  |  |  | IC50 (CARM1; read-out: CARM1 inhibitor potency): […]; Anti-tumour activity in vivo [3]: anti-tumour activity in vivo |
| N=C(N)NCCCN(CCCN)C[C@H]1O[C@@H](n2cnc3c(N)ncnc32)[C@H](O)[C@@H]1O [Inhibitor 4] | 0.481 ± 0.0062 | -24.6 ± 0.633 kcal/mol | 3320 ± 335 nM |  | 17.2 kcal/mol | -7.48 kcal/mol | 2300 nM |  |  |  |  |  |  |  |  |  |  | N (stoichiometry) ± standard error from curve fitting, PRMT1 [2]: 0.519 ± 0.0082; ∆H ± standard error from curve fitting, PRMT1 ([2]; 10: competition experiment): -16 ± 0.77 kcal/mol; Kd ([2]; 25°C, direct titration, 7: stoichiometry fixed to 0.5, read-out: Kd ± standard error, PRMT1): 10200 ± 996 nM; ∆G, PRMT1 ([2]; calculated indirectly from best-fit Kd and ∆H, 10: competition experiment): -6.81 kcal/mol; -T∆S, PRMT1 ([2]; 10: competition experiment): 9.2 kcal/mol; IC50 (PRMT1_22–361): 7200 nM |
| N=C(N)NCCCCCN(CC[C@H](N)C(=O)O)C[C@H]1O[C@@H](n2cnc3c(N)ncnc32)[C@H](O)[C@@H]1O [Inhibitor 7] | 0.648 ± 0.032 | -18.6 ± 2.31 kcal/mol | 38100 ± 9610 nM | 38100 ± 9610 nM | 12.5 kcal/mol | -6.02 kcal/mol | 24100 nM | 8180 ± 482 nM |  |  |  |  |  |  |  |  |  |  |
| B1 |  |  |  |  |  |  |  |  |  |  |  |  |  |  |  |  |  | binding result [4]: binds |

From publication PMC7054760, “Structural and biochemical evaluation of bisubstrate inhibitors of protein arginine N-methyltransferases PRMT1 and CARM1 (PRMT4)” (Biochemical Journal, 2020)
